In data set [1] the target is influenza B polymerase initiating RNA synthesis at the cRNA promoter (cPol) (Influenza B virus, UniProt Q5V8Y6). As to the kind of experiment: biochemical. It is filed as biochemical, influenza B/Memphis/13/03.
The target in data set [2] is influenza B polymerase, vPol (c5' hook) (Influenza B virus, UniProt Q5V8Y6). As to the kind of experiment: biochemical. On the set-up: species or system influenza B/Memphis/13/03.
For data set [3], the target named is T1, influenza B polymerase initiating RNA synthesis at the vRNA promoter (vPol) (Influenza B virus, UniProt Q5V8X3+Q5V8Y6). Nature of the data set: biochemical. To be noted: IC50 (mM).
In the next data set the test system is influenza B polymerase. As to the kind of experiment: Fluorescence anisotropy/polarization protein-RNA binding. On the set-up: species or system influenza B/Memphis/13/03. Conditions: for dissociation constant, polymerase + RNA (in words): each RNA separately. The procedure: Fluorescence spectroscopy was used to quantify protein–RNA interactions, employing either a plate reader or cuvette format. Using the cuvette, protein was successively added to FAM-Ex-5-labelled RNA (if not indicated otherwise) in binding buffer (50 mM HEPES/NaOH, 0.15 M NaCl, 10% (v/v) glycerol, 2 mM Tris(2-carboxyethyl)phosphine (TCEP), pH 7.4) at the concentrations indicated. After attaining equilibrium, total fluorescence intensity and fluorescence anisotropy were measured at T = 24°C with a fluorescence spectrometer (Photon Technology International) equipped with polarizers with excitation and emission wavelengths set to 495 and 515 nm, respectively. Total fluorescence intensity was corrected for the volume change due to addition of protein and the observed fluorescence anisotropy corrected for the change in fluorescence intensity according to Equation (1) ([17]): (1) where fb represents the fractional concentration of bound RNA, r the observed anisotropy, rf and rb the anisotropy of free and bound RNA, and If and Ib the fluorescence intensity of free and bound RNA, respectively. Using KaleidaGraph (Synergy Software), dissociation constants were derived by fitting the binding isotherms to a 1:1 binding model of RNA and protein according to Equation (2) (2) where fb represents the fractional concentration of bound RNA, L the total concentration of labelled RNA, P the concentration of protein and KD the dissociation constant.
For orientation: In fluorescence polarisation assays a small probe gives low polarisation when free and higher when bound to something large.

Data set [4] concerns the target T1, influenza B polymerase initiating RNA synthesis at the vRNA promoter (vPol). To be noted: read-out: KM of primer, vPol, 0.5 mM NTPs, 0.15 μM template v3΄ 1–18, 0.25 μM polymerase, T = 24°C.
For a further data set, the system named is influenza polymerase. On the set-up: method as in PMID 8585725. To be noted: in vitro and cell culture experiments; cited from earlier work.
For data set [5], the target named is Cy3-labelled c3΄ RNA (18-mer). As to the kind of experiment: FRET assay of RNA-RNA interaction with c3΄ RNA. It is filed as binding. To be noted: FAM-labelled 5΄ RNA, T = 25°C. As for the experimental part: (§1) RNA–RNA interactions were quantified by a simple FRET-assay. Briefly, ∼0.01 μM short 5΄ RNAs labelled at their 3΄ ends by FAM-Ex-5 were incubated at T = 25°C in 384 well plates (FIA plate black, 128.0/85 mm, medium binding; Greiner Bio-One GmbH, Austria) in binding buffer (50 mM HEPES/NaOH, 0.15 M NaCl, 10% (v/v) glycerol, 2 mM Tris(2-carboxyethyl)phosphine (TCEP), pH 7.4) with 3΄ RNAs labelled at their 5΄ end by Cy3 at the concentrations indicated. After attaining equilibrium (∼0.5 h), the FAM's fluorescence intensity was recorded as averaged technical triplicates (excitation / emission = 485/520 nm; 10 nm band width; CLARIOstar, BMG Labtech, Germany). The decreasing fluorescence intensity with increasing Cy3-labelled 3΄ RNA is plotted relative to its initial value as mean values of at least duplicate experiments with the standard deviation indicated. Mean values were then analysed according to Equation (2) (with P equaling the concentration of Cy3-labelled 3΄ RNA; curve fitting yielded L = 0.007 μM and 0.004 μM for FAM-Ex-5-labelled c5΄ and v5΄ nts 1–18, respectively), yielding the corresponding dissociation constants and error of the fitting routine stated. 0.2 μM FAM-Ex-5-labelled v5΄ nt 1–10 were used to study its weak interaction with either Cy3-labelled v3΄ nt 1–9 or v3΄ nt 1–18.

The next data set deals with Cy3-labelled v3΄ nt 1–18. Nature of the data set: FRET assay of RNA-RNA interaction with v3΄ nt 1–18. It is filed as binding. To be noted: FAM-labelled 5΄ RNA, T = 25°C. The procedure: as §1
[6] abbreviates: 0.025 mM NTPs, capped RNA primed, T ∼ 21°C, t = 176 or 100 min, read-out: IC50 (mM), cPol.
The mark [7] stands for this setting: 0.25 mM NTPs, capped RNA primed, T ∼ 21°C, t = 15 or 10 min, read-out: IC50 (mM), cPol.
Where [8] appears, read: 0.025 mM NTPs, capped RNA primed, T ∼ 21°C, t = 5 min, not duplicate, read-out: IC50 (mM), vPol (c5' hook).
The mark [9] stands for this setting: 0.025 mM NTPs, capped RNA primed, T ∼ 21°C, t = 5 min.
[10] abbreviates: 0.25 mM NTPs, capped RNA primed, T ∼ 21°C, t = 5 min.

“And” between values parts separate entries of the source, which are not always exact repeats. Equal values may be shown once. Read-outs that look alike come from different tables or passages of the source. Where only a bound is given, the exact number is not on record here.

This is an account of results in PMC5399792 (Nucleic Acids Research, 2017).

For orientation: IC50 means the point on the concentration scale where inhibition reaches its midpoint. By Km is commonly meant the substrate concentration at which the rate is half of its maximum. A word on the Kd: it is the equilibrium constant for the complex coming apart.

For the compound `Nc1ccn([C@@H]2O[C@H](COP(=O)(O)OP(=O)(O)OP(=O)(O)O)[C@@H](O)[C@H]2F)c(=O)n1` [2'F-2'dCTP], the half-inhibitory concentration (IC50) was 1.5 mM and 2.1 mM in data set [1] (IC50 (mM), cPol); 0.1 mM in data set [2]; 0.21 mM and 1.4 mM in data set [3].

As for “5′-UACCCUCUUGUUACUACU-3′ (chemistry not given here) [c3', anti-genomic cRNA 3΄ end, 18 nucleotides]”, in the data set on influenza B polymerase, the “dissociation constant, polymerase + RNA (in words)” value (“dissociation constant” below) is recorded as “low nanomolar range”.

For `O=c1ccn([C@@H]2O[C@H](COP(=O)(O)OP(=O)(O)OP(=O)(O)O)[C@@H](O)[C@H]2F)c(=O)[nH]1` [2'F-2'dUTP], the IC50 in data set [1] (IC50 (mM), cPol) was 1.1 mM and 1.8 mM; in data set [2], 0.3 mM; in data set [3], 0.45 mM and 3.1 mM.

As to 5΄-m^7GpppAAUCUAUAAUAG-3΄ [capped RNA], the Km amounted to 120 ± 30 nM in data set [1] (0.5 mM NTPs, 0.15 μM template c3΄ 1–18, 0.25 μM polymerase, T = 24°C, read-out: KM (capped RNA), cPol) and 27 ± 10 nM in data set [4].

In the case of `Nc1nc2c(ncn2[C@@H]2O[C@H](COP(=O)(O)OP(=O)(O)OP(=O)(O)O)[C@@H](O)[C@H]2F)c(=O)[nH]1` [2'F-2'dGTP], the IC50 is 0.28 mM in data set [1] (setting [6]); 0.43 mM in data set [1] (setting [7]); 0.01 mM in data set [2] (setting [8]); 0.02 mM in data set [3] (setting [9]); 0.2 mM in data set [3] (setting [10]). The “mode of inhibition of influenza polymerase with respect to GTP” value with influenza polymerase is “reversibly and competitively”.

Turning to “5΄-UAUACCUCUGCUUCUGCU-3΄ (chemistry not given here) [v3', genomic vRNA 3΄ end, 18 nucleotides]”, in the data set on influenza B polymerase, the “dissociation constant” value is listed as “low nanomolar range”.

As to 5΄-pAGUAGUAACAAGAG-3΄ [non-capped RNA], the Km in data set [4] is 1100 ± 200 nM; in data set [4] (listed as v5′ 1-14), about 1000 nM.

Take 5′-pAGCAGAAGCAGAGGUAUA-3′ [c5']: the Kd is 1.6 ± 0.3 nM in data set [5]; about 1.6 nM in data set [5] (listed as c5΄); 0.03 nM at Cy3-labelled v3΄ nt 1–18; about 0.03 nM on Cy3-labelled v3΄ nt 1–18 (listed as c5΄); under 10 nM on influenza B polymerase (fluorescently labelled RNA, binding buffer pH 7.4, read-out: KD, polymerase + promoter RNA). The “dissociation constant” value at influenza B polymerase is given as “low nanomolar range”.

For `Nc1ncnc2c1ncn2[C@@H]1O[C@H](COP(=O)(O)OP(=O)(O)OP(=O)(O)O)[C@@H](O)[C@H]1F` [2'F-2'dATP], the IC50 in data set [1] (setting [6]) stood at 0.7 mM; in data set [1] (setting [7]), 0.38 mM; in data set [2] (setting [8]), 0.03 mM; in data set [3] (setting [9]), 0.03 mM; in data set [3] (setting [10]), 0.3 mM.
